# In patent publication US11945798B2, “Substituted aminopyridine compounds as EGFR inhibitors” (YUHAN CORPORATION, priority 2021, dated 2024):
# Read-outs that look alike come from different tables or passages of the source.
# What was measured:
# EGFR L858R/T790M/C797S = EGFR L858R/T790M/C797S (Homo sapiens, UniProt P00533, C797S/L858R/T790M); assay: Biochemical EGFR kinase assay (Lance Ultra TR-FRET), L858R/T790M/C797S
# Experimental: (§1) Biochemical EGFR kinase assays were conducted using Lance Ultra time-resolved fluorescence resonance energy transfer (TR-FRET) technology from Perkin-Elmer. Compounds of the invention were initially diluted to 20 mM in 100% DMSO for storage and made into kinase buffer solution to create a compound concentration ranging from 0.003 μM and 10 μM.
# (§2) Each kinase reactions were incubated at room temperature for 1 hour and then stopped by the addition of 4 μL of stop solution (10 mM EDTA). The specific Europium-labeled-anti-phosphopeptide antibody (PerkinElmer, AD0069) diluted in LANCE detection buffer was then added to a final concentration of 2 nM. After 60 minutes incubation at room temperature the LANCE signal was measured on an EnVision Multilabel Reader (Perkin-Elmer). Excitation wavelength was set at 320 nm and emission monitored at 615 nm (donor) and 665 nm (acceptor). The IC50 values were determined using GraphPad prism software (GraphPad Software, Inc., San Diego, CA, USA).
# EGFR wildtype (WT) = EGFR wildtype (WT) (Homo sapiens, UniProt P00533); assay: Biochemical EGFR kinase assay (Lance Ultra TR-FRET), wildtype
# Experimental: as §1, §2
# EGFR del19/C797S = EGFR del19/C797S (Homo sapiens, UniProt P00533, C797S/DEL746-750); assay: Biochemical EGFR kinase assay (Lance Ultra TR-FRET), del19/C797S
# Chain of EGFR del19/C797S (P00533 with tags, fused parts or gaps DEL746-750/C797S): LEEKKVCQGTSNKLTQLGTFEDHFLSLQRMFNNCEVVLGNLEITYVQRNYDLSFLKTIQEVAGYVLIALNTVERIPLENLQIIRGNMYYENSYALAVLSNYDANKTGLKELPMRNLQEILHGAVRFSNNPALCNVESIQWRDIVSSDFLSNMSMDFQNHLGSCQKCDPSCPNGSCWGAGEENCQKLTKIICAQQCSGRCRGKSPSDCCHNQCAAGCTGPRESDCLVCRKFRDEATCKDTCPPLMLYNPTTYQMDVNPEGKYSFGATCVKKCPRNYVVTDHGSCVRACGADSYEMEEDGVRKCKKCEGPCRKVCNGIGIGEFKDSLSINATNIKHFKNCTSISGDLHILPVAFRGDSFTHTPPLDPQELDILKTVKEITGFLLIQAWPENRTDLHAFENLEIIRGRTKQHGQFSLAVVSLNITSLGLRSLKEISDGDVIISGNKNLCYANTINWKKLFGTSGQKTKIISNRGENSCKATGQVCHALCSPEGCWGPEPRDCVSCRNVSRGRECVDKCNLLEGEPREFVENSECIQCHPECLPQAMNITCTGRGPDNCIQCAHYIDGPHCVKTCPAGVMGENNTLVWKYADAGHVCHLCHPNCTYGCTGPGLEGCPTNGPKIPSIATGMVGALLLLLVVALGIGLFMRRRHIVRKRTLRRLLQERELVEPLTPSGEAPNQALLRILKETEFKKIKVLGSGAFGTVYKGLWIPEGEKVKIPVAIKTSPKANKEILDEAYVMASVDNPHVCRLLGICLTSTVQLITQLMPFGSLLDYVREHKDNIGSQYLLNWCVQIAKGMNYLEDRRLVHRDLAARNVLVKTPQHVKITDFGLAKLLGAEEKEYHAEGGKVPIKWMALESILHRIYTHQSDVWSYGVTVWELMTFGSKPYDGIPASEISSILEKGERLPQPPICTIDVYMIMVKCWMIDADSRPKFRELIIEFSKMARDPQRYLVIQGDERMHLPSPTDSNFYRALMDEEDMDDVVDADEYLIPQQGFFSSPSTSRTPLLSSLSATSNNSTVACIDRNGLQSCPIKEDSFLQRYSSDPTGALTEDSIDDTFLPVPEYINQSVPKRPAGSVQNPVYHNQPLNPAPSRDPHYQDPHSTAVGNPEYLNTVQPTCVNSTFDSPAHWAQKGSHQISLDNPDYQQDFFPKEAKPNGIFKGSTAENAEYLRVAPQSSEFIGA
# Experimental: as §1, §2
# EGFR del19/T790M/C797S = EGFR del19/T790M/C797S (Homo sapiens, UniProt P00533, C797S/DEL746-750/T790M); assay: Biochemical EGFR kinase assay (Lance Ultra TR-FRET), del19/T790M/C797S
# Chain of EGFR del19/T790M/C797S (P00533 with tags, fused parts or gaps DEL746-750/T790M/C797S): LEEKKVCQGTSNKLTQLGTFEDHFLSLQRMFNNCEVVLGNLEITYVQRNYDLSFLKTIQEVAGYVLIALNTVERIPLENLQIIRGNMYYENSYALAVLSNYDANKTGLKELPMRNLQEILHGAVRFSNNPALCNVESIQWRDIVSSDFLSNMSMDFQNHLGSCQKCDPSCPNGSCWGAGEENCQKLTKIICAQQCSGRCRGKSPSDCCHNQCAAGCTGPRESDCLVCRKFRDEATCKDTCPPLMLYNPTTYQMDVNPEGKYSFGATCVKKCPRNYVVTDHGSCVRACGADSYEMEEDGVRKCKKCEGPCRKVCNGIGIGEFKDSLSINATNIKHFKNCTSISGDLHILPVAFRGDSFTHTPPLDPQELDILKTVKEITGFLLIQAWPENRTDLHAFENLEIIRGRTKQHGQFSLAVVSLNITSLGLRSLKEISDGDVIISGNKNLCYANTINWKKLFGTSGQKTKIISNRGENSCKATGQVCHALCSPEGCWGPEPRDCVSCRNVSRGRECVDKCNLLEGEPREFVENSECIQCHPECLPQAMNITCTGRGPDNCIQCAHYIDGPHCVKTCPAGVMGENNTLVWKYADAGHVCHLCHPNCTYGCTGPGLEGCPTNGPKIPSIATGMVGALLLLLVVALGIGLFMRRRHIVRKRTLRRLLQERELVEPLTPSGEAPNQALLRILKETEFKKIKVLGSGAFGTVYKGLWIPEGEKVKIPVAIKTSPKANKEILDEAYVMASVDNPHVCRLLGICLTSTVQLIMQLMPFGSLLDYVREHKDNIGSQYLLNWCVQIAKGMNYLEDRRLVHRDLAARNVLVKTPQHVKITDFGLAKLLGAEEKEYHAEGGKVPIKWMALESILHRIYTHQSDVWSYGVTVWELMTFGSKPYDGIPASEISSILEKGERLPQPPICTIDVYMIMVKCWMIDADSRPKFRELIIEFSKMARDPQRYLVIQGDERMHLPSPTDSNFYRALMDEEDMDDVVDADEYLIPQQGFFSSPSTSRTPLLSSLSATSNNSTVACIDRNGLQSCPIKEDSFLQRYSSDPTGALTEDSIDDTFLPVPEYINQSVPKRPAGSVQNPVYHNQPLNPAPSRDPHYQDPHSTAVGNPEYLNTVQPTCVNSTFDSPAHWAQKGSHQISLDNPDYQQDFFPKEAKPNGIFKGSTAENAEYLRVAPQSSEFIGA
# Experimental: as §1, §2
# EGFR L858R/C797S = EGFR L858R/C797S (Homo sapiens, UniProt P00533, C797S/L858R); assay: Biochemical EGFR kinase assay (Lance Ultra TR-FRET), L858R/C797S
# Chain of EGFR L858R/C797S (P00533 25-1210 C797S/L858R): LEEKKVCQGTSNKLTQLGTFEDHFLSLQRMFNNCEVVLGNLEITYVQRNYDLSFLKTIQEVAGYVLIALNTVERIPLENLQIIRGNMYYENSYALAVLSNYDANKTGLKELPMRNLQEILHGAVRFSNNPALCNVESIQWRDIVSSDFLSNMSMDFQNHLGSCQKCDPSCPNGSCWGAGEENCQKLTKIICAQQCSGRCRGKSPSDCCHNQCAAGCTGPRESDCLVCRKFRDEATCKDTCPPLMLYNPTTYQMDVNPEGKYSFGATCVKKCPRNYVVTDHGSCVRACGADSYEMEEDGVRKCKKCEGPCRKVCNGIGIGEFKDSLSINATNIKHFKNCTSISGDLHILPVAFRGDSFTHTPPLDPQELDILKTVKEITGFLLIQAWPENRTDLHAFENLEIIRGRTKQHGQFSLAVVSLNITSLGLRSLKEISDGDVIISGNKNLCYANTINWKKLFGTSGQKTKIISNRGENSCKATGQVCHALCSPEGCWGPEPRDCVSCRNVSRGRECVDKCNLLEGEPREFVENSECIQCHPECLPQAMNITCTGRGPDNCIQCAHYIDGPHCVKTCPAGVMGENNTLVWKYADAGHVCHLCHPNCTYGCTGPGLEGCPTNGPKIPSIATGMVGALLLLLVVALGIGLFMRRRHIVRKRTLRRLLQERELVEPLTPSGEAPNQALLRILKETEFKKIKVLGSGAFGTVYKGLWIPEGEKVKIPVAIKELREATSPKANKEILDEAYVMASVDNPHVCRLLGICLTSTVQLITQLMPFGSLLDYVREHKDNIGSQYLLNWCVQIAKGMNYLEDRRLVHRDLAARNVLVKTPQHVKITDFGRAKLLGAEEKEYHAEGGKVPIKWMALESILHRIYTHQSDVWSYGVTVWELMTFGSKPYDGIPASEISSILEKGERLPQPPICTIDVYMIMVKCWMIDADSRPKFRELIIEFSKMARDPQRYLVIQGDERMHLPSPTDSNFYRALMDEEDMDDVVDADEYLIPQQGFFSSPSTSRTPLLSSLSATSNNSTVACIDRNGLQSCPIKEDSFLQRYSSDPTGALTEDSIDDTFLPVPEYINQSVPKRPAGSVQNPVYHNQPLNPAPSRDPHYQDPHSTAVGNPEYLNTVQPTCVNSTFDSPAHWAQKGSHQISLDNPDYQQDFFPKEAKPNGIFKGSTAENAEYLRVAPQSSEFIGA
# Experimental: as §1, §2
# [1] = Km ATP, read-out: IC50 L858R/T790M/C797S (nM) Km ATP
# [2] = Km ATP, read-out: IC50 WT (nM) Km ATP
# [3] = Km ATP, read-out: IC50 del19/C797S (nM) Km ATP
# [4] = Km ATP, read-out: IC50 del19/T790M/C797S (nM) Km ATP
# [5] = Km ATP, read-out: IC50 L858R/C797S (nM) Km ATP
# [6] = IC50 L858R/T790M/C797S (nM) 100 μM ATP, 100 μM ATP
# [7] = IC50 WT (nM) 100 μM ATP, 100 μM ATP
# [8] = IC50 del19/C797S (nM) 100 μM ATP, 100 μM ATP
# [9] = IC50 del19/T790M/C797S (nM) 100 μM ATP, 100 μM ATP
# [10] = IC50 L858R/C797S (nM) 100 μM ATP, 100 μM ATP
# Chain of EGFR L858R/T790M/C797S (P00533 25-1210 T790M/C797S/L858R): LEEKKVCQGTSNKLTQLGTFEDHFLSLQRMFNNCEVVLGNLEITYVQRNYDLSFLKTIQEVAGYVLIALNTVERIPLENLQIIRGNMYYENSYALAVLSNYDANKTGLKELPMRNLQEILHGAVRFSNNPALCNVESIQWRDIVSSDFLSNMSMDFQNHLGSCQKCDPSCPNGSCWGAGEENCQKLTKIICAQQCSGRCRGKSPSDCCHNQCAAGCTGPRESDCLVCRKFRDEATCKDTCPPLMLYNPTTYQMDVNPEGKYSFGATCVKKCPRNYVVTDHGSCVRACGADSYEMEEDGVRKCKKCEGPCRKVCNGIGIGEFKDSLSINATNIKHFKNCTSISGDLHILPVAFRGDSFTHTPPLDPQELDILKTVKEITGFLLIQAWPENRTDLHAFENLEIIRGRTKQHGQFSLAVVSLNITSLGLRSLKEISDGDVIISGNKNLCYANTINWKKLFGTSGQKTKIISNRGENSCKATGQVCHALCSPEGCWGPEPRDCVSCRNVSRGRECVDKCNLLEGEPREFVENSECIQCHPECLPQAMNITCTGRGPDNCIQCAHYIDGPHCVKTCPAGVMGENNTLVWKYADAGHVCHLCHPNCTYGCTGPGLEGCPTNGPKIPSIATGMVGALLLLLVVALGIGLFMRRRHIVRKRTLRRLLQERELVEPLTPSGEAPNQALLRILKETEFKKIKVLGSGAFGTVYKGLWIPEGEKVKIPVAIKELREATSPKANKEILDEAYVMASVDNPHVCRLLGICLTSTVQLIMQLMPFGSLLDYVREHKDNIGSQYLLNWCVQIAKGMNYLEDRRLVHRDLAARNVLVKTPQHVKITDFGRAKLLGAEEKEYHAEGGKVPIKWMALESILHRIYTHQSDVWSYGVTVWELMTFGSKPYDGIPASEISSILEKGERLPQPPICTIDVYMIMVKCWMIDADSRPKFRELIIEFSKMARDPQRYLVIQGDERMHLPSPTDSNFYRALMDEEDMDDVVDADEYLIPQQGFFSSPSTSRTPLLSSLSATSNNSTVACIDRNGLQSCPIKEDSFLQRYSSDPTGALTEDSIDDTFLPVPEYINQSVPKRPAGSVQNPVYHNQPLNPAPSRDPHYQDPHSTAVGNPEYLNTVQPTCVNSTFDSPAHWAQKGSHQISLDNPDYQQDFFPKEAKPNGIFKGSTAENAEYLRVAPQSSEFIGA
IC50 (EGFR L858R/T790M/C797S; [1]),IC50 (EGFR wildtype (WT); [2]),IC50 (EGFR del19/C797S; [3]),IC50 (EGFR del19/T790M/C797S; [4]),IC50 (EGFR L858R/C797S; [5]),IC50 (EGFR L858R/T790M/C797S; [6]),IC50 (EGFR wildtype (WT); [7]),IC50 (EGFR del19/C797S; [8]),IC50 (EGFR del19/T790M/C797S; [9]),IC50 (EGFR L858R/C797S; [10]),SMILES
0.2 nM,28.2 nM,4.5 nM,0.2 nM,61.7 nM,–,–,–,–,–,"O=C(c1cnc(Nc2ccnc(-c3cnn(S(=O)(=O)C4CC4)c3)n2)cc1NC1CCC(CO)C1)C1CC1 (stereo not shown) [Example 13, Cyclopropyl(6-((2-(1-(cyclopropylsulfonyl)-1H-pyrazol-4-yl)pyrimidin-4-yl)amino)-4-((3-(hydroxymethyl)cyclopentyl)amino)pyridin-3-yl)methanone]"
0.4 nM,176 nM,13.2 nM,2.3 nM,30.8 nM,–,–,–,–,–,"CN(C)Cc1ccc(CNc2cc(Nc3ccnc(-c4cnn(C(F)F)c4)n3)ncc2C(=O)C2CC2)cc1 [Example 16, Cyclopropyl(6-((2-(1-(difluoromethyl)-1H-pyrazol-4-yl)pyrimidin-4-yl)amino)-4-((4-((dimethylamino)methyl)benzyl)amino)pyridin-3-yl)methanone]"
3.9 nM,239 nM,415 nM,2.2 nM,59.2 nM,–,–,–,–,–,"CN(C)Cc1ccc(CNc2cc(Nc3ccnc(-c4cnn(S(=O)(=O)C5CC5)c4)n3)ncc2C(=O)C2CC2)s1 [Example 20, Cyclopropyl(6-((2-(1-(cyclopropylsulfonyl)-1H-pyrazol-4-yl)pyrimidin-4-yl)amino)-4-(((5-((dimethylamino)methyl)thiophen-2-yl)methyl)amino)pyridin-3-yl)methanone]"
1.1 nM,63.5 nM,72.3 nM,0.4 nM,16.4 nM,–,–,–,–,–,"CN(C)C1CCN(CCNc2cc(Nc3ccnc(-c4cnn(S(=O)(=O)C5CC5)c4)n3)ncc2C(=O)C2CC2)CC1 [Example 21, Cyclopropyl(6-((2-(1-(cyclopropylsulfonyl)-1H-pyrazol-4-yl)pyrimidin-4-yl)amino)-4-((2-(4-(dimethylamino)piperidin-1-yl)ethyl)amino)pyridin-3-yl)methanone]"
–,–,–,–,–,1.1 nM,> 10000 nM,14 nM,0.9 nM,33.2 nM,"O=C(c1cnc(Nc2ccnc(-c3cnn(S(=O)(=O)C4CC4)c3)n2)cc1N[C@H]1CCC[C@H](O)C1)C1CC1 [Example 22, Cyclopropyl(6-((2-(1-(cyclopropylsulfonyl)-1H-pyrazol-4-yl)pyrimidin-4-yl)amino)-4-(((1S,3S)-3-hydroxycyclohexyl)amino)pyridin-3-yl)methanone]"
–,–,–,–,–,0.5 nM,3410 nM,2.4 nM,0.7 nM,6.4 nM,"O=C(c1cnc(Nc2ccnc(-c3cnn(S(=O)(=O)C4CC4)c3)n2)cc1N[C@H]1CC[C@@H](O)CC1)C1CC1 [Example 23, Cyclopropyl(6-((2-(1-(cyclopropylsulfonyl)-1H-pyrazol-4-yl)pyrimidin-4-yl)amino)-4-(((1s,4s)-4-hydroxycyclohexyl)amino)pyridin-3-yl)methanone]"
–,–,–,–,–,1 nM,> 10000 nM,11.8 nM,0.9 nM,29.4 nM,"O=C(c1cnc(Nc2ccnc(-c3cnn(S(=O)(=O)C4CC4)c3)n2)cc1N[C@H]1CC[C@@H](O)C1)C1CC1 [Example 25, Cyclopropyl(6-((2-(1-(cyclopropylsulfonyl)-1H-pyrazol-4-yl)pyrimidin-4-yl)amino)-4-(((1S,3R)-3-hydroxycyclopentyl)amino)pyridin-3-yl)methanone]"
–,–,–,–,–,3.3 nM,> 10000 nM,55.3 nM,2.9 nM,118 nM,"O=C(c1cnc(Nc2ccnc(-c3cnn(S(=O)(=O)C4CC4)c3)n2)cc1N[C@@H]1CC[C@@H](O)C1)C1CC1 [Example 26, Cyclopropyl(6-((2-(1-(cyclopropylsulfonyl)-1H-pyrazol-4-yl)pyrimidin-4-yl)amino)-4-(((1R,3R)-3-hydroxycyclopentyl)amino)pyridin-3-yl)methanone]"
–,–,–,–,–,32.1 nM,> 10000 nM,176 nM,2.6 nM,234 nM,"CC(C)(CO)CNc1cc(Nc2ccnc(-c3cnn(S(=O)(=O)C4CC4)c3)n2)ncc1C(=O)C1CC1 [Example 28, Cyclopropyl(6-((2-(1-(cyclopropylsulfonyl)-1H-pyrazol-4-yl)pyrimidin-4-yl)amino)-4-((3-hydroxy-2,2-dimethylpropyl)amino)pyridin-3-yl)methanone]"
–,–,–,–,–,10 nM,> 10000 nM,3.5 nM,1.8 nM,120 nM,"O=C(c1cnc(Nc2ccnc(-c3cnn(S(=O)(=O)C4CC4)c3)n2)cc1NCCC1(O)CC1)C1CC1 [Example 29, Cyclopropyl(6-((2-(1-(cyclopropylsulfonyl)-1H-pyrazol-4-yl)pyrimidin-4-yl)amino)-4-((2-(1-hydroxycyclopropyl)ethyl)amino)pyridin-3-yl)methanone]"
–,–,–,–,–,2 nM,> 10000 nM,51.1 nM,1.2 nM,54.7 nM,"CN[C@H]1CC[C@@H](Nc2cc(Nc3ccnc(-c4cnn(S(=O)(=O)C5CC5)c4)n3)ncc2C(=O)C2CC2)CC1 [Example 32, Cyclopropyl-(6-((2-(1-(cyclopropylsulfonyl)-1H-pyrazol-4-yl)pyrimidin-4-yl)amino)-4-(((1s,4s)-4-(methylamino)cyclohexyl)amino)pyridin-3-yl)methanone]"
0.3 nM,13.9 nM,–,1 nM,0.9 nM,0.8 nM,> 10000 nM,1.7 nM,0.8 nM,6.5 nM,"C[C@]1(O)CC[C@@H](Nc2cc(Nc3ccnc(-c4cnn(S(=O)(=O)C5CC5)c4)n3)ncc2C(=O)C2CC2)CC1 [Example 33, Cyclopropyl(6-((2-(1-(cyclopropylsulfonyl)-1H-pyrazol-4-yl)pyrimidin-4-yl)amino)-4-(((1s,4s)-4-hydroxy-4-methylcyclohexyl)amino)pyridin-3-yl)methanone]"
–,–,–,–,–,5.3 nM,> 10000 nM,124 nM,2 nM,398 nM,"O=C(c1cnc(Nc2ccnc(-c3cnn(S(=O)(=O)C4CC4)c3)n2)cc1NC1CCCOC1)C1CC1 (stereo not shown) [Example 34, Cyclopropyl(6-((2-(1-(cyclopropylsulfonyl)-1H-pyrazol-4-yl)pyrimidin-4-yl)amino)-4-((tetrahydro-2H-pyran-3-yl)amino)pyridin-3-yl)methanone]"
–,–,–,–,–,23.1 nM,> 10000 nM,602 nM,5.2 nM,543 nM,"O=C(c1cnc(Nc2ccnc(-c3cnn(S(=O)(=O)C4CC4)c3)n2)cc1NC1CCOCC1)C1CC1 [Example 35, Cyclopropyl(6-((2-(1-(cyclopropylsulfonyl)-1H-pyrazol-4-yl)pyrimidin-4-yl)amino)-4-((tetrahydro-2H-pyran-4-yl)amino)pyridin-3-yl)methanone]"
–,–,–,–,–,0.9 nM,> 10000 nM,5.4 nM,0.5 nM,15.5 nM,"O=C(c1cnc(Nc2ccnc(-c3cnn(S(=O)(=O)C4CC4)c3)n2)cc1NC1CC[C@@H](O)[C@@H](O)C1)C1CC1 (stereo partly drawn) [Example 36, Cyclopropyl(6-((2-(1-(cyclopropylsulfonyl)-1H-pyrazol-4-yl)pyrimidin-4-yl)amino)-4-(((3S,4R)-3,4-dihydroxycyclohexyl)amino)pyridin-3-yl)methanone]"
